Measured values taken from publication PMC9606955, “In Vitro Activity of Essential Oils Distilled from Colombian Plants against Candida auris and Other Candida Species with Different Antifungal Susceptibility Profiles” (Molecules, 2022).
Converted amounts (≈) assume the structure as drawn. “Also recorded” adds a separate entry of the source.

Tests used:
C. krusei ATCC 6258 = experiment: MIC, CLSI M27 broth microdilution; assay type: cell-based, Candida krusei; details: C. krusei ATCC 6258, EOs and terpenes
From the text: (§1) The fungal strains used in this study were C. albicans ATCC 10231, C. albicans ATCC 64550, C. parapsilosis ATCC 22019, C. tropicalis ATCC 750, C. tropicalis ATCC 200956 (resistant to azoles and AMB), C. glabrata LMDM 34 (resistant to echinocandins), C. metapsilosis MUM 15.12, C. orthopsilosis MUM 17.13, C. lusitaniae MUM 17.08, C. krusei ATCC 6258 (Issatchenkia orientalis ATCC 6258), and C. auris CDC B11903. Additionally, nine clinical isolates were included: C. parapsilosis Synlab 406 (FLC-resistant) and eight C. auris isolates identified by MALDI-TOF MS (Bruker Daltonics, Bremen, Germany) according to Zhao et al.. These yeasts were cultured on Sabouraud Dextrose Agar (SDA; Sigma-Aldrich, St. Louis, MO, USA) for 24 h at 35 °C.
(§2) Antifungal susceptibility testing was performed according to Clinical and Laboratory Standards Institute M27, 4th Edition (CLSI standard M27, 4th Edition). Some modifications were applied for evaluation of the antifungal activity of EOs and terpenes. Initially, a screening was carried out to determine the antifungal activity of the EOs and of commercial terpenes. Stock concentrations of EOs and terpenes were prepared at 512 µg/mL and an inoculum of 2.5 × 10^3 CFU/mL of each yeast was prepared in RPMI 1640-MOPS (Sigma- Aldrich St. Louis, MO, USA). Thereafter, 100 µL of each stock solution of EOs or terpenes was dispensed in 96-well microdilution plates (Corning®, Costar®, NY, USA) and 100 µL of each yeast inoculum was added. […] Microdilution plates were incubated at 35 °C and, after 24 h, the presence or absence of growth was visually checked using a manual mirror viewer and then compared with the amount of growth in the control (no EO or terpene). Compounds able to inhibit yeast growth were tested to determine the minimal inhibitory concentration (MIC) as follows: 100 µL of 10 two-fold dilutions of the EOs or commercial terpenes was dispensed in 96-well microplates and the yeast inoculum was added. Final concentrations of the EOs or terpenes ranged from 0.5 µg/mL to 256 µg/mL. Microdilution plates were incubated at 35 °C for 24 h. MICs were visually determined at the lowest concentration that produced visual inhibition compared to the growth control. The assays were performed at least three times in duplicate on different days. The results were expressed as geometric means (GM) and ranges. As an antifungal susceptibility testing control, the activity of ITC and AMB against the reference strains C. krusei ATCC 6258 and C. parapsilosis ATCC 22019 was evaluated in all experiments following the CLSI standard M27, 4th Edition. It was mandatory that the MIC values remained in the accepted range.

[1] = tested on: C. tropicalis ATCC 200956; experiment: MIC, CLSI M27 broth microdilution; assay type: cell-based, Candida tropicalis; details: C. tropicalis ATCC 200956, EOs and terpenes
From the text: as §1, §2

[2] = tested on: C. metapsilosis MUM 15.12; experiment: MIC, CLSI M27 broth microdilution; assay type: cell-based, Candida metapsilosis; details: Lodderomyces metapsilosis, MUM15.12; C. metapsilosis MUM 17.13 (Table 3); EOs and terpenes; 24 h; top concentration 256 µg/mL; read-out: GM MIC
From the text: as §1, §2

[3] = tested on: C. orthopsilosis MUM 17.13; experiment: MIC, CLSI M27 broth microdilution; assay type: cell-based, Candida orthopsilosis; details: Lodderomyces orthopsilosis, MUM17.13; C. orthopsilosis MUM 15.12 (Table 3); EOs and terpenes; 24 h; top concentration 256 µg/mL; read-out: GM MIC
From the text: as §1, §2

C. lusitaniae MUM 17.08 = experiment: MIC, CLSI M27 broth microdilution; assay type: cell-based, Candida lusitaniae; details: C. lusitaniae MUM 17.08, EOs and terpenes
From the text: as §1, §2

C. auris CDC B11903 [4] = experiment: MIC, CLSI M27 broth microdilution; assay type: cell-based, Candida auris; details: Candidozyma auris, CDCB11903; C. auris CDC B11903; EOs and terpenes; 24 h; top concentration 256 µg/mL; read-out: GM MIC
From the text: as §1, §2

C. auris Ca 13 = experiment: MIC, CLSI M27 broth microdilution; assay type: cell-based, Candida auris; details: Candidozyma auris, CA13; C. auris Ca 13; EOs and terpenes; 24 h; top concentration 256 µg/mL; read-out: GM MIC
From the text: as §1, §2

C. auris Ca 17 = experiment: MIC, CLSI M27 broth microdilution; assay type: cell-based, Candida auris; details: Candidozyma auris, CA17; C. auris Ca 17; EOs and terpenes; 24 h; top concentration 256 µg/mL; read-out: GM MIC
From the text: as §1, §2

C. auris Ca 1 = experiment: MIC, CLSI M27 broth microdilution; assay type: cell-based, Candida auris; details: C. auris Ca 1, EOs and terpenes
From the text: as §1, §2

C. auris Ca 32 = experiment: MIC, CLSI M27 broth microdilution; assay type: cell-based, Candida auris; details: Candidozyma auris, CA32; C. auris Ca 32; EOs and terpenes; 24 h; top concentration 256 µg/mL; read-out: GM MIC
From the text: as §1, §2

C. auris Ca 41 = experiment: MIC, CLSI M27 broth microdilution; assay type: cell-based, Candida auris; details: Candidozyma auris, CA41; C. auris Ca 41; EOs and terpenes; 24 h; top concentration 256 µg/mL; read-out: GM MIC
From the text: as §1, §2

C. auris Ca 45 = experiment: MIC, CLSI M27 broth microdilution; assay type: cell-based, Candida auris; details: Candidozyma auris, CA45; C. auris Ca 45; EOs and terpenes; 24 h; top concentration 256 µg/mL; read-out: GM MIC
From the text: as §1, §2

C. auris Ca 46 = experiment: MIC, CLSI M27 broth microdilution; assay type: cell-based, Candida auris; details: Candidozyma auris, CA46; C. auris Ca 46; EOs and terpenes; 24 h; top concentration 256 µg/mL; read-out: GM MIC
From the text: as §1, §2

C. auris Ca 9 = experiment: MIC, CLSI M27 broth microdilution; assay type: cell-based, Candida auris; details: Candidozyma auris, CA9; C. auris Ca 9; EOs and terpenes; 24 h; top concentration 256 µg/mL; read-out: GM MIC
From the text: as §1, §2

[5] = tested on: C. parapsilosis Synlab 406; experiment: MIC, CLSI M27 broth microdilution; assay type: cell-based, Candida parapsilosis; details: Lodderomyces parapsilosis, SYNLAB406; C. parapsilosis Synlab 406; EOs and terpenes; 24 h; top concentration 256 µg/mL; read-out: GM MIC
From the text: as §1, §2

Candida spp. = experiment: Screening of antifungal activity at 256 µg/mL against twenty strains; assay type: cell-based; details: screening at 256 µg/mL
From the text: as §1
Antifungal susceptibility testing was performed according to Clinical and Laboratory Standards Institute M27, 4th Edition (CLSI standard M27, 4th Edition). Some modifications were applied for evaluation of the antifungal activity of EOs and terpenes. Initially, a screening was carried out to determine the antifungal activity of the EOs and of commercial terpenes. Stock concentrations of EOs and terpenes were prepared at 512 µg/mL and an inoculum of 2.5 × 10^3 CFU/mL of each yeast was prepared in RPMI 1640-MOPS (Sigma- Aldrich St. Louis, MO, USA). Thereafter, 100 µL of each stock solution of EOs or terpenes was dispensed in 96-well microdilution plates (Corning®, Costar®, NY, USA) and 100 µL of each yeast inoculum was added. […] MICs were visually determined at the lowest concentration that produced visual inhibition compared to the growth control. […] The results were expressed as geometric means (GM) and ranges. As an antifungal susceptibility testing control, the activity of ITC and AMB against the reference strains C. krusei ATCC 6258 and C. parapsilosis ATCC 22019 was evaluated in all experiments following the CLSI standard M27, 4th Edition. […]

C. albicans ATCC 10231 = experiment: Time–kill assay; assay type: cell-based, Candida albicans; details: 1X and 2X MIC, 24 h
Description: (§3) Time–kill assays with the L. origanoides (thymol + p-cymene) chemotype (Code 0018) EO, thymol, FLC, and AMB against C. albicans ATCC 10231, C. tropicalis ATCC 200956, and C. auris CDC B11903 were performed according to the protocol published by Klebser et al. with some modifications. […] Absorbance at λ = 490 nm was measured every 2 h with a Multiskan SkyHigh Microplate Spectrophotometer. AMB and FLC were included as fungicidal and fungistatic control drugs, respectively.

[6] = tested on: C. tropicalis ATCC 200956; experiment: Time–kill assay; assay type: cell-based, Candida tropicalis; details: 1X and 2X MIC, 24 h
Description: as §3

C. auris CDC B11903 [7] = experiment: Time–kill assay; assay type: cell-based, Candida auris
Description: as §3

C. auris = tested on: C. auris; design: method as in PMID 31980703; details: cited from earlier work
Cytotoxicity, MTT assay = details: human, HaCaT keratinocyte cells
Description: Cells were cultured in Dulbecco’s Modified Eagle Medium (DMEM; Sigma-Aldrich, St. Louis, MO, USA) supplemented with 10% fetal bovine serum (Invitrogen, Carlsbad, CA, USA), 1% penicillin, streptomycin, and neomycin (Invitrogen, Carlsbad, CA, USA), and 1% L-glutamine (Invitrogen, Carlsbad, CA, USA) at 37 °C in a humidified atmosphere of 5% CO2. […] Afterwards, the culture medium was removed and 3-(4.5-dimethylthiazol-2-yl)-2.5-diphenyltetrazolium bromide (MTT) (Sigma-Aldrich, St. Louis, MO, USA) at 5 mg/mL was added at 37 °C for 2 h. Subsequently, DMSO was added to dissolve the formazan crystals. Finally, the absorbances were measured with a Multiskan SkyHigh Microplate Spectrophotometer (Thermo Fisher Scientific, Waltham, MA, USA) at λ = 570 nm. The CC50 values were obtained by linear regression analysis with concentration–response curves, which were performed with absorbance data using GraphPad Prism software (Prism 9.3.0, San Diego, CA, USA). The assays were conducted at two separate times in triplicate. The data were expressed as means.

Range MIC (C. krusei ATCC 6258): 128 to 256 µg/mL
MIC (C. krusei ATCC 6258; Pichia kudriavzevii, ATCC6258, 24 h, top concentration 256 µg/mL, read-out: GM MIC): 181 µg/mL (≈ 1200 µM)
Range MIC [1]: 64 to 128 µg/mL
MIC ([1]; Candida tropicalis, ATCC200956, 24 h, top concentration 256 µg/mL, read-out: GM MIC): 90.5 µg/mL (≈ 602 µM)
MIC [2]: 128 µg/mL (≈ 852 µM)
MIC [3]: 128 µg/mL (≈ 852 µM)
Range MIC (C. lusitaniae MUM 17.08): 64 to 128 µg/mL
MIC (C. lusitaniae MUM 17.08; Clavispora lusitaniae, MUM17.08, 24 h, top concentration 256 µg/mL, read-out: GM MIC): 90.5 µg/mL (≈ 602 µM)
MIC (C. auris CDC B11903 [4]): 64 µg/mL (≈ 426 µM)
MIC (C. auris Ca 13): 128 µg/mL (≈ 852 µM)
MIC (C. auris Ca 17): 64 µg/mL (≈ 426 µM)
Range MIC (C. auris Ca 1): 128 to 256 µg/mL
MIC (C. auris Ca 1; Candidozyma auris, CA1, 24 h, top concentration 256 µg/mL, read-out: GM MIC): 181 µg/mL (≈ 1200 µM)
MIC (C. auris Ca 32): 64 µg/mL (≈ 426 µM)
MIC (C. auris Ca 41): 64 µg/mL (≈ 426 µM)
MIC (C. auris Ca 45): 64 µg/mL (≈ 426 µM)
MIC (C. auris Ca 46): 64 µg/mL (≈ 426 µM)
MIC (C. auris Ca 9): 128 µg/mL (≈ 852 µM)
MIC [5]: 64 µg/mL (≈ 426 µM)
SMILES: Cc1ccc(C(C)C)c(O)c1 [Thymol, thymol]
antifungal activity in screening (Candida spp.): active against all tested Candida spp.
effect in time–kill assay (C. albicans ATCC 10231): fungicidal
effect in time–kill assay [6]: fungicidal
effect on growth in time–kill assay (C. auris CDC B11903 [7]; 0.5, 1 and 2X MIC, 24 h): not affected; also recorded: did not show fungicidal activity
lag-phase in time–kill assay (C. auris CDC B11903 [7]; 2X MIC): extended lag-phase
MIC Range (C. auris): 156 to 625 µg/mL
CC50 at 24 h (Cytotoxicity, MTT assay): 428 µg/mL (≈ 2850 µM)
